In patent US8058475B2, “Substituted cyclohexylmethyl compounds” (Gruenenthal GmbH, priority 2005, dated 2011):
pKi: −log10 of the molar value. Where a name gives a salt, the structure may show the parent alone. Read-outs that look alike come from different tables or passages of the source.

Key:
[1] = target: T1, Noradrenaline (NA) reuptake (Rattus norvegicus, UniProt Q63380); assay: Noradrenaline (NA) reuptake inhibition in rat brain synaptosomes (hypothalamus, P2 fraction); type: biochemical; settings: read-out: NA reuptake, % inhibition [10 μM]
T1 construct: synaptosomes are freshly isolated from areas of rat brain; from tissue; host or cells: rat hypothalamus synaptosomes (P2 fraction)
From the text: (§1) Noradrenaline (NA) and Serotonin (5HT) Reuptake Inhibition
(§2) In order to be able to carry out these studies in vitro, synaptosomes are freshly isolated from areas of rat brain. A so-called “P2” fraction prepared by the method of Gray and Whittaker (E. G. Gray and V. P. Whittaker (1962) J. Anat. 76, 79-88) is used in each case. For the NA uptake, these vesicular particles are isolated from the hypothalamus of male rat brains.
(§3) A detailed description of the method will be found in the literature (M. Ch. Frink, H. H. Hennies, W. Englberger, M. Haurand and B. Wilffert (1996) Arzneim.-Forsch./Drug Res. 46 (III), 11, 1029-1036).

[2] = target: T2, Serotonin (5HT) reuptake (Rattus norvegicus, UniProt P31652); assay: Serotonin (5HT) reuptake inhibition in rat brain synaptosomes (P2 fraction); type: biochemical; settings: read-out: Serotonin reuptake, % inhibition [10 μM]
T2 construct: synaptosomes are freshly isolated from areas of rat brain; from tissue; host or cells: rat brain synaptosomes (P2 fraction)
From the text: as §1, §2, §3

[3] = target: human μ-opiate receptor (Homo sapiens, UniProt P35372); assay: Affinity for the human μ-opiate receptor ([3H]-naloxone displacement, SPA, CHO-K1 membrane preparation); type: binding; settings: for inhibition at 1 µM: read-out: μ-Opioid receptor, % inhibition [1 μM]; for pKi: read-out: μ-Opioid receptor, Ki
[4] = 1 μM test substance, inhibition of specific [3H]-naloxone binding

T1 sequence (Q63380 1-617): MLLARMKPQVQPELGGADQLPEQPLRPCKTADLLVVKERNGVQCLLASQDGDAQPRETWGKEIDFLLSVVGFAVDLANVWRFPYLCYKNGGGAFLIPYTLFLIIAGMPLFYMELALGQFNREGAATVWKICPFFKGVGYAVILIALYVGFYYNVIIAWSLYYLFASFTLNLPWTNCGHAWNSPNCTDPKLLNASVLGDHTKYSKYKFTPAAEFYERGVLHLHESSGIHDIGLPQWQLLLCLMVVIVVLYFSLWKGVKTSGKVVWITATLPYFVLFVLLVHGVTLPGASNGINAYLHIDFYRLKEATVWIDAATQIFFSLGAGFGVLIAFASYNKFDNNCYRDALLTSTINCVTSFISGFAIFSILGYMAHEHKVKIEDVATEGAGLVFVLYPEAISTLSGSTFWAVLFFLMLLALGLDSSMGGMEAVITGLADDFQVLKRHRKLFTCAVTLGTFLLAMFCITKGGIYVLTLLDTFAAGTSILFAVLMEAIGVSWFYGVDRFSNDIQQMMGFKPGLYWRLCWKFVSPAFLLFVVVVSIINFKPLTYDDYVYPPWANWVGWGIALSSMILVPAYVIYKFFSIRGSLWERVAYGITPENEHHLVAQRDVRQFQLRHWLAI
T2 sequence (P31652 whole entry): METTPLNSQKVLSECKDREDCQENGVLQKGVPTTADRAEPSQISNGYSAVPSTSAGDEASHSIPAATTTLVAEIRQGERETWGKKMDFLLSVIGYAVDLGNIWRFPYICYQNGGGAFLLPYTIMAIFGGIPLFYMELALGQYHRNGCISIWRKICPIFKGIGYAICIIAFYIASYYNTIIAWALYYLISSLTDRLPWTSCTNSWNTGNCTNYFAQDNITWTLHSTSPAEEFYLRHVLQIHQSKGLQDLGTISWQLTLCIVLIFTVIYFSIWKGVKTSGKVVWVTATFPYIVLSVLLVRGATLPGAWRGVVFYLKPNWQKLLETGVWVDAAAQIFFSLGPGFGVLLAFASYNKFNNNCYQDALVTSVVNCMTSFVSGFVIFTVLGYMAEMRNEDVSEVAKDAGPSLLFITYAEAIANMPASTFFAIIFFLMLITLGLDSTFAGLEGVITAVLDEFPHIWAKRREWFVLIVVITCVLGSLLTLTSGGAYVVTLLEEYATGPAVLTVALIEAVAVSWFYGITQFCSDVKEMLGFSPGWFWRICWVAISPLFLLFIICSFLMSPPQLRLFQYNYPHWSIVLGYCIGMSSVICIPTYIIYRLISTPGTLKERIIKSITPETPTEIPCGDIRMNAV
Chain of human μ-opiate receptor (P35372 whole entry): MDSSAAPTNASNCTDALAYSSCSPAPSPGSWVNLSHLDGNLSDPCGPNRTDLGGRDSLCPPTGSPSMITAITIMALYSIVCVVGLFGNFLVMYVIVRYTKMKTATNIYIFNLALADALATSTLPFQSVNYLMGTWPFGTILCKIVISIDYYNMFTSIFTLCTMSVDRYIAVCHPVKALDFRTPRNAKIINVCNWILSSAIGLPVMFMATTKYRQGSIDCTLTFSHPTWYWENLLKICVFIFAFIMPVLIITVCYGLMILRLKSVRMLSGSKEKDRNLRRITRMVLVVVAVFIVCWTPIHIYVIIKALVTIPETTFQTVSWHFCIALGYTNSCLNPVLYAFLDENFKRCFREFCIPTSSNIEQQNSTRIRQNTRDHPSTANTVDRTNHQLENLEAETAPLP

Row | SMILES | inhibition at 10 µM [1] [%] | inhibition at 10 µM [2] [%] | inhibition at 1 µM [3] [%] | pKi [3] | further results
1 | CN(C)C(c1cccc(F)c1)C1CCC(NC(=O)c2nc(CC3CC3)no2)CC1 (stereo not shown) [compound 500, 3-cyclopropylmethyl-[1,2,4]oxadiazole-5-carboxylic acid {4-[dimethylamino-(3-fluoro-phenyl)-methyl]-cyclohexyl}-amide] | 101 | – | – | – | –
2 | Cc1ccc(C(C2CCC(=CC(=O)N(C)Cc3ccccc3)CC2)N2CCCCC2)cc1 (stereo not shown) [compound 496, N-benzyl-N-methyl-2-(4-(piperidin-1-yl(p-tolyl)methyl)cyclohexylidene)-acetamide] | 26 | 18 | – | – | –
3 | CN(C)C(c1cccs1)C1CCC(C=O)CC1 (stereo not shown) [compound 40, 4-(Dimethylamino-thiophen-2-yl-methyl)-cyclohexanecarbaldehyde] | 77 | 78 | – | – | –
4 | CN(C)C(c1ccc(F)cc1)C1CCC(CN)CC1 (stereo not shown) [compound 33, [(4-aminomethyl-cyclohexyl)-(4-fluorophenyl)-methyl]-dimethylamine] | 94 | 95 | – | – | –
5 | CN(C)C(c1cccc(F)c1)C1CCC(NC(=O)c2nc(-c3ccccc3)no2)CC1 (stereo not shown) [compound 499, 3-phenyl-[1,2,4]oxadiazole-5-carboxylic acid {4-[dimethylamino-(3-fluoro-phenyl)-methyl]-cyclohexyl}-amide] | 103 | – | – | – | –
6 | CN(C)C(CCc1ccccc1)C1CCC(CN)CC1 (stereo not shown) [compound 45, [1-(4-aminomethyl-cyclohexyl)-3-phenyl-propyl]-dimethylamine] | 96 | 90 | – | – | –
7 | Cc1noc(C(=O)NCCC2CCC(C(c3ccccc3)N(C)C)CC2)n1 (stereo not shown) [compound 498, 3-methyl-[1,2,4]oxadiazole-5-carboxylic acid {2-[4-(dimethylamino-phenyl-methyl)-cyclohexyl]-ethyl}-amide] | 99 | – | – | – | –
8 | CN(C)C(CCc1ccccc1)C1CCC(C=O)CC1 (stereo not shown) [compound 43, 4-(1-Dimethylamino-3-phenyl-propyl)-cyclohexane-carbaldehyde] | 98 | 80 | – | – | –
9 | CCOC(=O)C=CC1CCC(C(CCc2ccccc2)N(C)C)CC1 (stereo not shown) [compound 141, 3-[4-(1-dimethylamino-3-phenyl-propyl)-cyclohexyl]-acrylic acid ethyl ester] | 98 | 83 | – | – | –
10 | COc1cccc(NC(=O)CC2CCC(C(Cc3ccccc3)N3CCCC3)CC2)c1 (stereo not shown) [compound 492, N-(3-methoxyphenyl)-2-(4-(2-phenyl-1-(pyrrolidin-1-yl)ethyl)cyclohexyl)-acetamide] | 54 | 3 | – | – | –
11 | CN(C)C(CCc1ccccc1)C1CCC(CC=O)CC1 (stereo not shown) [compound 70, [4-(1-Dimethylamino-3-phenyl-propyl)-cyclohexyl]-acetaldehyde] | 93 | 70 | – | – | –
12 | COc1ccc(NC(=O)C=C2CCC(C(c3ccc(C)cc3)N3CCCCC3)CC2)cc1 (stereo not shown) [compound 493, N-(4-methoxyphenyl)-2-(4-(piperidin-1-yl(p-tolyl)methyl)cyclohexylidene)-acetamide] | 27 | 38 | – | – | –
13 | CN(C)C(CCc1ccccc1)C1CCC(N)CC1 (stereo not shown) [compound 27, 4-(1-dimethylamino-3-phenyl-propyl)-cyclohexylamine] | 95 | 78 | – | – | –
14 | CCOC(=O)CCC1CCC(C(CCc2ccccc2)N(C)C)CC1 (stereo not shown) [compound 142, 3-[4-(1-dimethylamino-3-phenyl-propyl)-cyclohexyl]-propionic acid ethyl ester] | 99 | 84 | – | – | –
15 | CN(C)C(c1ccc(Cl)cc1)C1CCC(CC=O)CC1 (stereo not shown) [compound 55, {4-[(4-Chlorophenyl)-dimethylamino-methyl]-cyclohexyl}-acetaldehyde] | 95 | 88 | – | – | –
16 | CN(C)C(c1cccc(F)c1)C1CCC(CC=O)CC1 (stereo not shown) [compound 52, {4-[Dimethylamino-(3-fluorophenyl)-methyl]-cyclohexyl}-acetaldehyde] | 96 | 94 | – | – | –
17 | Cc1ccc(C(C2CCC(=CC(=O)NCCc3ccccc3)CC2)N2CCCCC2)cc1 (stereo not shown) [compound 494, N-phenethyl-2-(4-(piperidin-1-yl(p-tolyl)methyl)cyclohexylidene)acetamide] | 81 | 40 | – | – | –
18 | CN(C)C(c1ccc(F)cc1)C1CCC(N)CC1 (stereo not shown) [compound 19, 4-[dimethylamino-(4-fluorophenyl)-methyl]-cyclohexylamine] | 93 | 87 | – | – | –

Row | SMILES | inhibition at 10 µM [1] [%] | inhibition at 10 µM [2] [%] | inhibition at 1 µM [3] [%] | pKi [3] | further results
19 | CN(C)C(c1ccccc1)C1CCC(O)(Cc2ccccc2)CC1 (stereo not shown) [compound 147, 1-benzyl-4-((dimethylamino)(phenyl)methyl)cyclohexanol hydrochloride] | 12 | – | – | – | –
20 | CN(C)C(c1ccccc1)C1CCC(NC(=O)c2nc(-c3cccs3)no2)CC1 (stereo not shown) [compound 497, 3-thiophen-2-yl-[1,2,4]oxadiazole-5-carboxylic acid [4-(dimethylamino-phenyl-methyl)-cyclohexyl]-amide] | 101 | – | – | – | –
21 | COCc1noc(C(=O)NCCC2CCC(C(CCc3ccccc3)N(C)C)CC2)n1 (stereo not shown) [compound 501, 3-methoxymethyl-[1,2,4]oxadiazole-5-carboxylic acid {2-[4-(1-dimethylamino-3-phenyl-propyl)-cyclohexyl]-ethyl}-amide] | 106 | – | – | – | –
22 | Cc1c(S(=O)(=O)c2ccc(Cl)cc2)csc1C(=O)NC1CCC(C(c2ccccc2)N(C)C)CC1 (stereo not shown) [compound 233, 4-(4-chloro-benzenesulfonyl)-3-methyl-thiophene-2-carboxylic acid [4-(dimethylamino-phenyl-methyl)-cyclohexyl]-amide] | – | – | 84 | 7.15 | –
23 | CN(C)C(c1ccccc1)C1CCC(CNC(=O)c2cccnc2Oc2ccc(Cl)cc2)CC1 (single isomer, unassigned) [compound 360, 2-(4-chloro-phenoxy)-N-[4-(dimethylamino-phenyl-methyl)-cyclohexylmethyl]-nicotinamide] | – | – | 86 | 7.46 | –
24 | COc1cccc(OC)c1C(=O)NCC1CCC(C(c2cccs2)N(C)C)CC1 (stereo not shown) [compound 300, N-[4-(dimethylamino-thiophen-2-yl-methyl)-cyclohexylmethyl]-2,6-dimethoxy-benzamide] | – | – | 99 | 8.85 | –
25 | CN(C)C(c1cccs1)C1CCC(CNC(=O)c2csc3ccccc23)CC1 (stereo not shown) [compound 302, benzo[b]thiophene-3-carboxylic acid [4-(dimethylamino-thiophen-2-yl-methyl)-cyclohexylmethyl]-amide] | – | – | 99 | 8.80 | –
26 | CN(C)C(c1ccccc1)C1CCC(CCNC(=O)Cc2ccccc2)CC1 (stereo not shown) [compound 451, N-{2-[4-(dimethylamino-phenyl-methyl)-cyclohexyl]-ethyl}-2-phenyl-acetamide] | – | – | 92 | 7.62 | –
27 | CN(C)C(c1ccccc1)C1CCC(NC(=O)Cc2ccc(Cl)cc2)CC1 (stereo not shown) [compound 206, 2-(4-chloro-phenyl)-N-[4-(dimethylamino-phenyl-methyl)-cyclohexyl]-acetamide] | – | – | 93 | 7.25 | –
28 | COc1cccc(CC2(O)CCC(C(c3cccc(F)c3)N(C)C)CC2)c1 (stereo not shown) [compound 156, 4-[dimethylamino-(3-fluoro-phenyl)-methyl]-1-(3-methoxy-benzyl)-cyclohexanol] | – | – | – | – | inhibition at 1 µM [3, 4]: 73%
29 | CN(C)C(c1ccc(Cl)cc1)C1CCC(CNC(=O)c2ccccc2Br)CC1 (stereo not shown) [compound 394, 2-bromo-N-{4-[(4-chloro-phenyl)-dimethylamino-methyl]-cyclohexylmethyl}-benzamide] | – | – | 79 | 7.32 | –
30 | CCC(C(=O)NCCC1CCC(C(c2cccs2)N(C)C)CC1)c1ccccc1 (stereo not shown) [compound 456, N-{2-[4-(dimethylamino-thiophen-2-yl-methyl)-cyclohexyl]-ethyl}-2-phenyl-butyramide] | – | – | 96 | 7.64 | –
31 | Cc1oc(-c2ccc(Cl)cc2)cc1C(=O)NC1CCC(C(c2ccccc2)N(C)C)CC1 (stereo not shown) [compound 232, 5-(4-chloro-phenyl)-2-methyl-furan-3-carboxylic acid [4-(dimethylamino-phenyl-methyl)-cyclohexyl]-amide] | – | – | 84 | 7.13 | –
32 | CN(C)C(c1ccc(Cl)cc1)C1CCC(O)(Cc2ccccc2)CC1 (stereo not shown) [compound 159, 1-benzyl-4-[(4-chloro-phenyl)-dimethylamino-methyl]-cyclohexanol] | – | – | – | – | inhibition at 1 µM [3, 4]: 83%
33 | CN(C)C(c1cccs1)C1CCC(CNC(=O)c2cccc(Br)c2)CC1 (stereo not shown) [compound 307, 3-bromo-N-[4-(dimethylamino-thiophen-2-yl-methyl)-cyclohexylmethyl]-benzamide] | – | – | 98 | 8.21 | –
34 | CN(C)C(c1ccccc1)C1CCC(CCNC(=O)C2(c3ccc(Cl)cc3)CCCC2)CC1 (stereo not shown) [compound 449, 1-(4-chloro-phenyl)-cyclopentane-carboxylic acid {2-[4-(dimethylamino-phenyl-methyl)-cyclohexyl]-ethyl}-amide] | – | – | 88 | 7.44 | –
35 | CN(C)C(c1ccc(Cl)cc1)C1CCC(O)(CCc2ccccc2)CC1 (stereo not shown) [compound 163, 4-[(4-chloro-phenyl)-dimethylamino-methyl]-1-phenethyl-cyclohexanol] | – | – | – | – | inhibition at 1 µM [3, 4]: 81%
